A short description of data set [1]: Metabolic stability in human liver microsomes assessed as parent compound remaining at 0.5 uM preincubated for 6 mins followed by NADPH addition measured after 10 mins by LC-MS/MS analysis. Format: ADME, microsome. The settings on record: read-out: Stability. Background: Microsomes from liver hold many membrane-bound enzymes, among them those of drug oxidation.

A short description of data set [2]: Metabolic stability in rat liver microsomes assessed as parent compound remaining at 0.5 uM preincubated for 6 mins followed by NADPH addition measured after 10 mins by LC-MS/MS analysis. Format: ADME, microsome. The settings on record: read-out: Stability.
Data set [3] can be described thus: Metabolic stability in mouse liver microsomes assessed as parent compound remaining at 0.5 uM preincubated for 6 mins followed by NADPH addition measured after 10 mins by LC-MS/MS analysis. Format: ADME, microsome. The settings on record: read-out: Stability.
Data set [4] can be described thus: Half life in human liver microsomes aat 0.5 uM preincubated for 6 mins followed by NADPH addition measured after 10 mins by LC-MS/MS analysis. Format: ADME, microsome.
Data set [5] is described as follows: Half life in rat liver microsomes aat 0.5 uM preincubated for 6 mins followed by NADPH addition measured after 10 mins by LC-MS/MS analysis. Format: ADME, microsome.
Data set [6] can be described thus: Half life in mouse liver microsomes aat 0.5 uM preincubated for 6 mins followed by NADPH addition measured after 10 mins by LC-MS/MS analysis. Format: ADME, microsome.
Data set [7] is described as follows: Cmax in Balb/c mouse at 10 mg/kg, po. Format: ADME, organism-based. Details: dose 10 mg/kg, route oral. The settings on record: in vivo.
Data set [8] can be described thus: AUC (0 to 24 hrs) in Balb/c mouse at 10 mg/kg, po. The settings on record: in vivo. Details: time < 24 hr, dose 10 mg/kg, route oral. Format: ADME, organism-based.
Data set [9] deals with Oryctolagus cuniculus. Kind of data set: Effect on QTc time interval in New Zealand White rabbit administered as 10 mins iv infusion measured for 2 mins by ECG analysis. Format: ADME, organism-based. The settings on record: in vivo.
A short description of data set [10]: Cmax in mouse at 6 mg/kg, po. Format: ADME, organism-based. Details: dose 6 mg/kg, route oral. The settings on record: in vivo.
A short description of data set [11]: Cmax in rat at 5 mg/kg, po. Format: ADME, organism-based. The settings on record: in vivo. Also noted: dose 5 mg/kg, route oral.
A short description of data set [12]: Cmax in dog at 2 mg/kg, po. Details: dose 2 mg/kg, route oral. Format: ADME, organism-based, Canis lupus familiaris. The settings on record: in vivo.
Data set [13] can be described thus: AUC in mouse at 6 mg/kg, po. Format: ADME, organism-based. The settings on record: in vivo.
The nature of data set [14]: Clearance in monkey at 1 mg/kg, iv. Format: ADME, organism-based, Macaca mulatta. The settings on record: rhesus monkey, in vivo.
A short description of data set [15]: AUC in rat at 5 mg/kg, po. Format: ADME, organism-based. The settings on record: in vivo.
A short description of data set [16]: Clearance in mouse at 3 mg/kg, iv. Format: ADME, organism-based. The settings on record: in vivo.
Data set [17] can be described thus: Clearance in rat at 2 mg/kg, iv. Format: ADME, organism-based. The settings on record: in vivo.
Data set [18] in a line: Volume of distribution at steady state in mouse at 3 mg/kg, iv. Format: ADME, organism-based. The settings on record: in vivo, read-out: Vdss.
The nature of data set [19]: Volume of distribution at steady state in rat at 2 mg/kg, iv. Format: ADME, organism-based. The settings on record: in vivo, read-out: Vdss.
The nature of data set [20]: Volume of distribution at steady state in dog at 1 mg/kg, iv. The settings on record: in vivo, read-out: Vdss. Format: ADME, organism-based, Canis lupus familiaris.
A short description of data set [21]: Volume of distribution at steady state in monkey at 1 mg/kg, iv. Format: ADME, organism-based, Macaca mulatta. The settings on record: rhesus monkey, in vivo, read-out: Vdss.
Data set [22] can be described thus: Half life in mouse at 3 mg/kg, iv. Format: ADME, organism-based. The settings on record: in vivo.
Data set [23] is described as follows: Half life in rat at 2 mg/kg, iv. Format: ADME, organism-based. The settings on record: in vivo.
Data set [24] is described as follows: Half life in dog at 1 mg/kg, iv. Format: ADME, organism-based, Canis lupus familiaris. The settings on record: in vivo.
Data set [25] in a line: Half life in monkey at 1 mg/kg, iv. Format: ADME, organism-based, Macaca mulatta. The settings on record: rhesus monkey, in vivo.
Data set [26] in a line: Oral bioavailability in mouse at 6 mg/kg. Format: ADME, organism-based. The settings on record: in vivo.
Data set [27] is described as follows: Oral bioavailability in rat at 5 mg/kg. Format: ADME, organism-based. The settings on record: in vivo.
The next data set has as its system Canis familiaris. Kind of data set: Oral bioavailability in dog at 2 mg/kg. Format: ADME, organism-based, Canis lupus familiaris. The settings on record: in vivo.
The test system of data set [28] is Plasma. Kind of data set: Drug uptake in New Zealand White rabbit plasma at 3 mg/kg, iv administered as 10 mins infusion measured up to 30 mins post dose. Format: ADME, organism-based, Oryctolagus cuniculus. The settings on record: in vivo.
Data set [29] deals with Plasma. Kind of data set: Drug uptake in New Zealand White rabbit plasma at 10 mg/kg, iv administered as 10 mins infusion measured up to 30 mins post dose. Format: ADME, organism-based, Oryctolagus cuniculus. The settings on record: in vivo.
Data set [30] concerns Plasma. In words: Drug uptake in New Zealand White rabbit plasma at 20 mg/kg, iv administered as 10 mins infusion measured up to 30 mins post dose. Format: ADME, organism-based, Oryctolagus cuniculus. The settings on record: in vivo.
The subject of data set [31] is Plasma. In words: Free plasma concentration in New Zealand White rabbit at 3 mg/kg, iv administered as 10 mins infusion measured up to 30 mins post dose. Format: ADME, organism-based, Oryctolagus cuniculus. The settings on record: in vivo.
For data set [32], the system named is Plasma. Kind of data set: Free plasma concentration in New Zealand White rabbit at 10 mg/kg, iv administered as 10 mins infusion measured up to 30 mins post dose. Format: ADME, organism-based, Oryctolagus cuniculus. The settings on record: in vivo.
Data set [33] deals with Plasma. In words: Free plasma concentration in New Zealand White rabbit at 20 mg/kg, iv administered as 10 mins infusion measured up to 30 mins post dose. Format: ADME, organism-based, Oryctolagus cuniculus. The settings on record: in vivo.
Data set [34] has as its system Oryctolagus cuniculus. Kind of data set: Effect on QTc time interval in New Zealand White rabbit at 3 mg/kg, iv administered as 10 mins infusion measured for 2 mins by ECG analysis. The settings on record: in vivo. Format: ADME, organism-based.
Data set [35] relates to Oryctolagus cuniculus. Kind of data set: Effect on QTc time interval in New Zealand White rabbit at 10 mg/kg, iv administered as 10 mins infusion measured for 2 mins by ECG analysis. The settings on record: in vivo. Format: ADME, organism-based.
Data set [36] has as its system Oryctolagus cuniculus. Kind of data set: Effect on QTc time interval in New Zealand White rabbit at 20 mg/kg, iv administered as 10 mins infusion measured for 2 mins by ECG analysis. Format: ADME, organism-based. The settings on record: in vivo.

Take `CC(=O)N1CCN(c2cccc(-c3cc(-c4ccnn4CC(F)(F)F)c4c(N)ncnn34)c2)C(=O)C1(C)C`: the remaining at 10 min, 0.5 µM stood at 80% in [1], 70% in [2] and 62% in data set [3]. For the same compound, the half-life at 0.5 µM was found to be 0.95 h in [4], 0.517 h in [5] and 0.433 h in data set [6]. In addition, the Cmax in data set [7] stood at 1.8 µM. In data set [8], this compound gave an AUC(0-t) at 24 h of 4.1 µM·h. In addition, in the data set on Oryctolagus cuniculus [9], the Time is recorded as greater than 10 ms.
Turning to `CC(=O)N1CCN(c2cccc(-c3cc(C(F)(F)F)c4c(N)ncnn34)c2)C(=O)C1(C)C`, the remaining at 10 min, 0.5 µM in data set [1] is 83%; in [2], 52%; in data set [3], 30%. The half-life at 0.5 µM in [4] was 0.683 h; in [5], 0.233 h; in data set [6], 0.15 h.
For `CC(=O)N1CCN(c2cc(-c3cc(C(F)(F)F)c4c(N)ncnn34)ccc2C#N)C(=O)C1(C)C`, the Cmax in data set [10] worked out at 5.9 µM; in data set [11] it was 14 µM; in data set [7], 8.2 µM; in data set [12], 6.3 µM. Besides, the remaining at 10 min, 0.5 µM was determined as 94% in data set [1], 91% in [2] and 81% in data set [3]. Also, the half-life at 0.5 µM in data set [4] is greater than 2 h; in data set [5], 1.12 h; in data set [6], 1.2 h. In addition, the AUC(0-t) at 24 h in data set [8] was 17 µM·h. The results for the AUC in data set [13] and in data set [15] were 12 µM·h and 54 µM·h, respectively. In addition, the clearance was determined as 4.6 mL/min/kg in data set [14], 17 mL/min/kg in data set [16] and 2.3 mL/min/kg in data set [17]. Moreover, the Vd was found to be 2.7 L/kg in [18], 0.5 L/kg in [19], 0.61 L/kg in data set [20] and 3.6 L/kg in data set [21]. Also, the half-life in data set [22] is 4.9 h; in data set [23] it was 3.5 h; in data set [24], 29 h; in data set [25] it was 10 h. Besides, the bioavailability worked out at 94% in [26] and 71% in [27]. Also, the F in the data set with Canis familiaris amounted to 75%. In addition, the results for the concentration with Plasma [28], in the data set on Plasma [29] and with Plasma [30] were 10 µM, 27 µM and 54 µM, respectively. Moreover, the “Cp(f)” value turned out to be 0.9 µM in the data set with Plasma [31], 2.4 µM with Plasma [32] and 4.8 µM in the data set with Plasma [33]. Also, the Time with Oryctolagus cuniculus [34] came to 2.2 ms; in the data set with Oryctolagus cuniculus [35] it was 13 ms; in the data set on Oryctolagus cuniculus [36] it was 25 ms.
For `CC(=O)N1CCN(c2cc(-c3cc(Cl)c4c(N)ncnn34)ccc2C)C(=O)C1(C)C`, the remaining at 10 min, 0.5 µM in data set [1] stood at 82%; in data set [2], 60%; in data set [3], 66%.
Take `CC(=O)N1C[C@H](C)N(c2cc(-c3cc(Cl)c4c(N)ncnn34)ccc2C#N)C(=O)C1(C)C`: the results for the remaining at 10 min, 0.5 µM in [1], in [2] and in data set [3] were 99%, 94% and 85%, respectively.
Take `CC(=O)N1CCN(c2cccc(-c3cc(-c4ccnn4C4CCOCC4)c4c(N)ncnn34)c2)C(=O)C1(C)C`: the remaining at 10 min, 0.5 µM amounted to 77% in data set [1], 81% in [2] and 53% in [3].
With `COc1ccc(-c2cc(Cl)c3c(N)ncnn23)cc1N1CCN(C(C)=O)C(C)(C)C1=O`, the values for the remaining at 10 min, 0.5 µM in data set [1], in data set [2] and in data set [3] were 94%, 91% and 94%, respectively.
In the case of `CC(=O)N1C[C@H](C)N(c2cc(-c3cc(C(F)(F)F)c4c(N)ncnn34)ccc2C#N)C(=O)C1(C)C`, the remaining at 10 min, 0.5 µM in [1] worked out at 89%; in [2] it was 91%; in [3], 100%.
For the compound `CC(=O)N1CCN(c2cc(-c3cc(C(F)(F)F)c4c(N)ncnn34)ccc2S(C)(=O)=O)C(=O)C1(C)C`, the remaining at 10 min, 0.5 µM was determined as 96% in [1], 96% in data set [2] and 97% in data set [3].
Consider `CC(=O)N1CCN(c2cc(-c3cc(Cl)c4c(N)ncnn34)ccc2C#N)C(=O)C1(C)C`, for which the remaining at 10 min, 0.5 µM in [1] was found to be 90%; in [2] it was 89%; in data set [3] it was 89%.
Take `CC(=O)N1CCN(c2cc(-c3cc(Cl)c4c(N)ncnn34)ccc2C(F)(F)F)C(=O)C1(C)C`: the remaining at 10 min, 0.5 µM in [1] was determined as 95%; in data set [2], 87%; in [3], 88%.

The term half-life denotes the time in which the quantity being followed falls by half. In general, Cmax refers to the maximum level reached in the sampled fluid or tissue. As a reminder, the AUC(0-t) is the area under the concentration-time curve up to a stated or last time point. Broadly, the AUC is the area under the concentration-time curve, a measure of exposure. Usually clearance stands for a measure of how efficiently the substance is removed, as volume per time. The bioavailability is dose-corrected exposure relative to a reference, in per cent.
